# ChEMBL document CHEMBL4002554, “Terpenoids from Melampodium perfoliatum” (2016)
# System: Mus musculus
# Experiment: Anti-inflammatory activity in TPA-induced CD1 mouse ear acute inflammation model assessed as reduction in TPA-induced ear edema administered topically 10 mins prior to TPA challenge measured after 4 hrs
# Assay type: functional
Structure (SMILES),ID50 [µmol],inhibition
C=C1C(=O)O[C@@H]2/C=C(\C)CC/C=C(/C(=O)OC)[C@H](O)[C@@H](OC(=O)/C(C)=C\C)[C@@H]12,0.56,Dose-dependent effect
C=C1C(=O)O[C@@H]2/C=C(\C)CC/C=C(/C(=O)OC)[C@H](O)[C@@H](OC(=O)[C@]3(C)O[C@@H]3C)[C@@H]12,1.15,Dose-dependent effect
C=C1C(=O)O[C@@H]2/C=C(\C)[C@@H]3O[C@@H]3/C=C(/C(=O)OC)[C@H](O)[C@@H](OC(=O)[C@]3(C)O[C@@H]3C)[C@@H]12 [MELAMPODIN A],1.14,Dose-dependent effect
CC(C)=CC(=O)C[C@@]12O[C@@H]1CC[C@]1(C)O[C@](C)(C(O)CO)CC[C@@H]1OC2=O (some centres not stated),1.49,Dose-dependent effect
COc1ccc2c(c1)c(CC(=O)O)c(C)n2C(=O)c1ccc(Cl)cc1 [INDOMETHACIN],0.24,–

# System: Mus musculus
# Experiment: Anti-inflammatory activity in TPA-induced CD1 mouse ear acute inflammation model assessed as reduction in TPA-induced ear edema at 1 mg/ear administered topically 10 mins prior to TPA challenge measured after 4 hrs relative to control
# Assay type: functional
row,Structure (SMILES),inhibition (INH) [%]
1,C=C1C(=O)O[C@@H]2/C=C(\C)[C@@H]3O[C@@H]3/C=C(/C(=O)OC)[C@H](OC(=O)[C@]3(C)O[C@@H]3C)[C@@H](OC(=O)[C@]3(C)O[C@@H]3C)[C@@H]12,<50
2,CC1(C)[C@H]2CC[C@@]34C[C@@H](CC[C@H]3[C@]2(C)CC[C@@H]1O)[C@@](O)(CO)C4,<50
3,C=C1C(=O)O[C@H]2[C@H]1[C@H](OC(=O)[C@]1(C)O[C@@H]1C)[C@@H](OC(=O)[C@]1(C)O[C@@H]1C)/C(C(=O)OC)=C\CC[C@@]1(C)O[C@H]21,<50
